Reference: the NIST ThermoML archive (doi:10.1021/je034017j)

Test: xn = mol fraction of the nth substance listed
Conditions: 101 kPa, Liquid

CCCCC(=O)OC [methyl pentanoate] + CCCCCCO
Capillary tube (Ostwald / Ubbelohde) method
Conditions	kinematic viscosity [m2/s]
293.15 K, x1 = 0.085	4.728e-06
293.15 K, x1 = 0.1145	4.25e-06
293.15 K, x1 = 0.1854	3.367e-06
293.15 K, x1 = 0.2862	2.527e-06
293.15 K, x1 = 0.4123	1.87e-06
293.15 K, x1 = 0.5087	1.533e-06
293.15 K, x1 = 0.6157	1.256e-06
293.15 K, x1 = 0.6835	1.129e-06
293.15 K, x1 = 0.7846	9.82e-07
293.15 K, x1 = 0.9071	8.57e-07
293.15 K, x1 = 0.9274	8.42e-07
293.15 K, x1 = 1	8e-07
303.15 K, x1 = 0.0771	3.701e-06
303.15 K, x1 = 0.1183	3.251e-06
303.15 K, x1 = 0.192	2.619e-06
303.15 K, x1 = 0.2983	1.994e-06
303.15 K, x1 = 0.4502	1.436e-06
303.15 K, x1 = 0.4593	1.412e-06
303.15 K, x1 = 0.5089	1.285e-06
303.15 K, x1 = 0.613	1.085e-06
303.15 K, x1 = 0.691	9.67e-07
303.15 K, x1 = 0.7873	8.55e-07
303.15 K, x1 = 0.8796	7.75e-07
303.15 K, x1 = 0.9346	7.39e-07
303.15 K, x1 = 1	7.08e-07
313.15 K, x1 = 0.0802	2.858e-06
313.15 K, x1 = 0.1168	2.58e-06
313.15 K, x1 = 0.1965	2.082e-06
313.15 K, x1 = 0.2939	1.644e-06
313.15 K, x1 = 0.3995	1.321e-06
313.15 K, x1 = 0.5141	1.083e-06
313.15 K, x1 = 0.548	1.028e-06
313.15 K, x1 = 0.5971	9.61e-07
313.15 K, x1 = 0.6912	8.44e-07
313.15 K, x1 = 0.7876	7.52e-07
313.15 K, x1 = 0.9035	6.75e-07
313.15 K, x1 = 0.9358	6.58e-07
313.15 K, x1 = 1	6.34e-07

Conditions	mass density [kg/m3]
293.15 K, x1 = 0.085	824.62
293.15 K, x1 = 0.1145	826.65
293.15 K, x1 = 0.1854	831.55
293.15 K, x1 = 0.2862	838.56
293.15 K, x1 = 0.4123	847.4
293.15 K, x1 = 0.5087	854.22
293.15 K, x1 = 0.6157	861.84
293.15 K, x1 = 0.6835	866.67
293.15 K, x1 = 0.7846	873.96
293.15 K, x1 = 0.9071	882.86
293.15 K, x1 = 0.9274	884.35
293.15 K, x1 = 1	889.75
303.15 K, x1 = 0.0771	816.54
303.15 K, x1 = 0.1183	819.23
303.15 K, x1 = 0.192	824.09
303.15 K, x1 = 0.2983	831.16
303.15 K, x1 = 0.4502	841.37
303.15 K, x1 = 0.4593	841.99
303.15 K, x1 = 0.5089	845.34
303.15 K, x1 = 0.613	852.44
303.15 K, x1 = 0.691	857.8
303.15 K, x1 = 0.7873	864.46
303.15 K, x1 = 0.8796	870.9
303.15 K, x1 = 0.9346	874.8
303.15 K, x1 = 1	879.51
313.15 K, x1 = 0.0802	809.21
313.15 K, x1 = 0.1168	811.47
313.15 K, x1 = 0.1965	816.46
313.15 K, x1 = 0.2939	822.62
313.15 K, x1 = 0.3995	829.39
313.15 K, x1 = 0.5141	836.8
313.15 K, x1 = 0.548	838.99
313.15 K, x1 = 0.5971	842.2
313.15 K, x1 = 0.6912	848.37
313.15 K, x1 = 0.7876	854.78
313.15 K, x1 = 0.9035	862.6
313.15 K, x1 = 0.9358	864.8
313.15 K, x1 = 1	869.32

CCCCCCO [hexan-1-ol] + CCCCCCCC
Conditions	kinematic viscosity [m2/s]	mass density [kg/m3]
293.15 K, x2 = 0	6.61e-06	818.84
293.15 K, x2 = 0.0618	5.49e-06	809.74
293.15 K, x2 = 0.086	–	806.25
293.15 K, x2 = 0.1114	4.74e-06	802.62
293.15 K, x2 = 0.1597	–	795.86
293.15 K, x2 = 0.1891	–	791.83
293.15 K, x2 = 0.1928	3.74e-06	791.32
293.15 K, x2 = 0.2346	–	785.68
293.15 K, x2 = 0.3022	2.75e-06	776.82
293.15 K, x2 = 0.4039	2.08e-06	764.07
293.15 K, x2 = 0.495	1.67e-06	753.22
293.15 K, x2 = 0.4994	–	752.71
293.15 K, x2 = 0.6088	1.31e-06	740.42
293.15 K, x2 = 0.715	1.08e-06	729.21
293.15 K, x2 = 0.7991	–	720.79
293.15 K, x2 = 0.8086	9.47e-07	719.86
293.15 K, x2 = 0.8381	–	717.02
293.15 K, x2 = 0.8767	–	713.37
293.15 K, x2 = 0.9078	8.43e-07	710.5
293.15 K, x2 = 0.9272	–	708.75
293.15 K, x2 = 0.9458	8.03e-07	707.09
303.15 K, x2 = 0	4.88e-06	811.56
303.15 K, x2 = 0.0233	–	808.05
303.15 K, x2 = 0.051	–	803.93
303.15 K, x2 = 0.086	3.85e-06	798.81
303.15 K, x2 = 0.1189	–	794.07
303.15 K, x2 = 0.1308	3.41e-06	792.38
303.15 K, x2 = 0.1581	–	788.53
303.15 K, x2 = 0.188	2.94e-06	784.37
303.15 K, x2 = 0.1922	–	783.8
303.15 K, x2 = 0.2352	–	777.94
303.15 K, x2 = 0.2632	–	774.2
303.15 K, x2 = 0.308	2.15e-06	768.33
303.15 K, x2 = 0.369	–	760.56
303.15 K, x2 = 0.3936	1.75e-06	757.47
303.15 K, x2 = 0.4152	–	754.82
303.15 K, x2 = 0.4508	–	750.49
303.15 K, x2 = 0.4994	1.38e-06	744.75
303.15 K, x2 = 0.5249	–	741.79
303.15 K, x2 = 0.578	–	735.78
303.15 K, x2 = 0.5852	1.17e-06	734.98
303.15 K, x2 = 0.6255	–	730.55
303.15 K, x2 = 0.7026	9.66e-07	722.36
303.15 K, x2 = 0.7143	–	721.15
303.15 K, x2 = 0.774	–	715.1
303.15 K, x2 = 0.7909	–	713.42
303.15 K, x2 = 0.8042	8.42e-07	712.11
303.15 K, x2 = 0.8532	–	707.39
303.15 K, x2 = 0.8767	7.73e-07	705.17
303.15 K, x2 = 0.9009	–	702.91
303.15 K, x2 = 0.9272	7.36e-07	700.52
303.15 K, x2 = 0.947	–	698.76
313.15 K, x2 = 0	3.69e-06	804.28
313.15 K, x2 = 0.0229	–	800.79
313.15 K, x2 = 0.0502	–	796.68
313.15 K, x2 = 0.0646	3.13e-06	794.53
313.15 K, x2 = 0.0825	–	791.88
313.15 K, x2 = 0.1067	2.81e-06	788.35
313.15 K, x2 = 0.1205	–	786.35
313.15 K, x2 = 0.1569	–	781.14
313.15 K, x2 = 0.2007	2.24e-06	774.99
313.15 K, x2 = 0.2441	–	769.04
313.15 K, x2 = 0.2976	1.78e-06	761.89
313.15 K, x2 = 0.3132	–	759.85
313.15 K, x2 = 0.3441	–	755.84
313.15 K, x2 = 0.3882	1.46e-06	750.23
313.15 K, x2 = 0.3938	–	749.53
313.15 K, x2 = 0.4703	–	740.16
313.15 K, x2 = 0.4916	1.18e-06	737.63
313.15 K, x2 = 0.4949	–	737.24
313.15 K, x2 = 0.5873	1e-06	726.62
313.15 K, x2 = 0.6023	–	724.95
313.15 K, x2 = 0.6746	–	717.11
313.15 K, x2 = 0.6964	–	714.81
313.15 K, x2 = 0.7108	8.36e-07	713.3
313.15 K, x2 = 0.757	–	708.56
313.15 K, x2 = 0.7619	–	708.06
313.15 K, x2 = 0.7893	7.56e-07	705.32
313.15 K, x2 = 0.8428	–	700.08
313.15 K, x2 = 0.8748	–	697.03
313.15 K, x2 = 0.9109	6.67e-07	693.67
313.15 K, x2 = 0.9297	–	691.97
313.15 K, x2 = 0.9599	6.41e-07	689.33
